What was measured:
[1] = tested on: DBA/2 Ha mice with SMT-F subcutaneous tumors; assay: Proto IX content of tissues of tumor-bearing mice fed the agent (Example 6); type: in vivo; conditions: for concentration of Proto IX in tissue, Adrenal / concentration of Proto IX in tissue, Intestine / concentration of Proto IX in tissue, Kidneys / concentration of Proto IX in tissue, Liver / concentration of Proto IX in tissue, Tumor / Proto IX Mean Cps per gram, Intestine: 2000 ppm in feed; for Proto IX Mean Cps per gram, Adrenal / Proto IX Mean Cps per gram, Kidneys / Proto IX Mean Cps per gram, Liver / Proto IX Mean Cps per gram, Tumor / Weight of Tumor as excised: 2000 ppm in feed Days 2-10, sacrificed Day 10 (6j Day 7)
Description: In this Example the enzyme-inhibiting agents were added to the feed of tumor-bearing mice; for some of the mice, used as a control, no agent was added to the feed. The mice were then sacrificed and their kidneys, intestines, adrenal glands, liver and tumor were removed and analyzed for their content of Proto IX. The following enzyme-inhibiting agents were employed: [drawing 10]
More particularly, the mice were DBA/2 Ha mice which had been injected with SMT-F subcutaneous tumors on Day 0 in the right shoulder. The mice, individually housed, received untreated Purina Rodent Chow 5001 Mash on Day 1; thereafter on Days 2 through 10 the mice received the same Mash treated with 2000 ppm of the inhibiting agent being tested (or, for the controls, the same untreated Mash). The treatment of the Mash was effected by blending it with a small amount of an acetone solution of the agent to be tested. The mice were then sacrificed on Day 10, except for the mouse treated with the agent designated as 6j; the latter was sacrificed on Day 7. The tissues were refrigerated at 4° C. overnight, then blotted dry, and the fresh weight of each tissue sample was recorded. The tissues were then homogenized in 5 mL, or lo mL in the cases of intestines and liver, of acetone-0.1 N NH4 OH (9:I, v/v). The homogenates were then centrifuged at 1500 g and the supernatants were analyzed on a SPEX FAII2 spectrofluorometer; excitation 400 nm, emission 630 nm wavelengths, the optima for Proto IX. Proto IX accumulation was determined as CPS (fluorescent counts per second emitted) per gram of tissue. The results are tabulated below (results are averages for two mice for each treatment, except for treatments with agents 6f, 6h, 6i and 6j in each of which only one mouse was treated): […]

[2] = tested on: HeLa cells; assay: Proto IX production in HeLa cells, extract of cells alone (Example 7); type: cell-based; conditions: Homo sapiens, 100 uM agent, first formula (background-subtracted), read-out: increase in the amount of Proto IX relative to the control
Description: In a series of experiments along the lines of Examples 1 and 2, cultures of HeLa cells were incubated in the presence of 100 uM of various treating agents, listed below. The percentage given, next to each treating agent, indicates the increase in the amount of Proto IX produced in the presence of that treating agent relative to the amount produced by the control in the same experiment.
As in Examples 1 and 2, the data for this Example 7 were based on measurements of fluorescence (e.g. in counts per second, "cps"). In this Example, however, the measurements were made on an extract of the cells alone (in contrast to Examples 1 and 2 in which the disrupted cells and culture medium together were extracted), the fluorometric medium was the one described in Example 5 (containing 1% Tween-20, 50 mM Tris-HCl, 1 mM EDTA and 1 mM dithioerythritol, pH 8.5), and a cps measurement of the fluorometric medium per se was also made. In calculating the foregoing data for this Example, the following formula was used to calculate the percentage increases: [formula] where Ca is the counts per second for the sample resulting from treatment with the agent, Cc is the counts per second for the control sample, and Cm is the counts per second for the fluorometric medium per se (i.e. the background fluoroescence). On reviewing the data it was observed that Cc -Cm for this set of experiments was […] compared to Cm; for instance, individual measured values were 49025 and 52069 for Cc and 4295 for Cm. […] Accordingly, the data were recalculated using the formula: [formula] with the following results: 6a 336%; 5b 148%; 6c 154%; 6d 510%; 6e 320%; 6f 280%; 6g 329%; 6h 178%; 6i 171%; 6j 185%; 7a 118%; 7b 142%; 7c 103%; 7d 128%; 7e 173%; 7f 118%; 7q 155%; 7h 118%.

[3] = tested on: HeLa cells; assay: Growth inhibition and Proto IX accumulation in HeLa cells (Example 2); type: cell-based, human; conditions: for Amount of Proto IX: average amount per 10^6 cells
Description: HeLa cells, in logarithmic growth phase having been cultured for 6 days in six one-liter Falcon tissue culture flasks at 37° C.), were washed in phosphate buffered saline (PBS). A 0.25% solution of trypsin in PBS was added, and, after several minutes, the cells were gently removed and placed into 110 mL of a 25 mM solution of Hepes in Minimum Essential Medium (MEM), supplemented with 10% v/v inactivated calf serum, 1.1 mL of a 200 mM solution of glutamine in 0.85% saline solution, and 11,000 units of penicillin/11,000 mcg streptomycin.
Aliquots (5.0 mL each) of the resuspended cell culture were placed into 50 mL Falcon tissue culture flasks, with or without herbicide, and incubated in the dark at 37° C. for 4 days, the herbicide being added in dilute acetone solution as in Example 1. Acetone was also added to the controls to provide a concentration of acetone of 0.2% v/v therein. The amount of herbicide was such as to provide the concentrations specified in Table 2 below.
Extraction: The media from each of the flasks were placed in glass round bottom tubes, while the cells adhering to the bottom of the flasks were loosened by the addition of 0.5 mL of a 0.25% solution of trypsin in PBS, and after several minutes at 37° C., then washed from the flasks and recombined with their media. Aliquots of 100 μL were then removed from each cell suspension to determine cell density. The remaining 5.4 mL of cell suspension was then sonified for 30 minutes to disrupt the cells.
Ten mL of basic acetone (90% acetone:10% 0.1 N NH4 OH) was then added to each tube, and the tubes were centrifuged to remove protein and cell debris. Five mL of water was added to the supernatant, followed by 0.5 mL of a saturated aqueous solution of NaCl. The pH was then adjusted to 6.8 by the dropwise addition of 2 M KH2 PO4. The aqueous acetone extract was then loaded onto a C8 Baker Prep column. The columns were dried and then washed with 2 mL of water. The tetrapyrroles were eluted with 3 mL of 90/10 CH3 OH/H2 O. As in Example 1, all these extraction procedures were carried out substantially entirely under non-protoporphrin IX-exciting light (e.g. green light) or in the dark (e.g. in opaque covered containers). The fluorescence of the extracts was then determined on a SPEX spectrofluorometer. Protoporphyrin IX ("Proto IX") accumulation was quantified utilizing predetermined extinction coefficients.

[4] = tested on: HeLa cells; assay: Tetrapyrrole accumulation in treated HeLa cells (Example 1); type: cell-based, human; conditions: 100 μM agent, 3 days in the dark
Description: HeLa cells (a human tumor cell line commonly employed for tumor research and obtained from the American Type Culture Collection), in logarithmic growth phase (having been cultured at 37° C. for five days in one-liter Falcon tissue culture flasks), were washed in phosphate buffered saline (PBS). A 0.25% solution of trypsin in PBS (2 mL) was added, and, after several minutes, the cells were gently removed from the flask and placed into 110 mL of a 25 mM solution of Hepes in Minimum Essential Medium (MEM) supplemented with 10% v/v inactivated calf serum, 1.1 mL of a 200 mM solution of glutamine in 0.85% saline solution, and 11,000 units of penicillin/11,000 mcg streptomycin.
Then, 5.0 mL aliquots of the resulting resuspended cell culture were each placed into a 50 mL Falcon tissue culture flask and (except for the control) mixed with the treating agent. The aliquots were then incubated in the dark at 37° C. for three days. The cells were then removed and extracted under green light in the following manner:
Cells were removed from the bottom of the flask with the addition of 0.8 mL of a 0.25% solution of trypsin in PBS. After 1 hour of incubation in the dark, cells and medium were removed from the flasks, placed into round bottom centrifuge tubes, and then subjected to two rounds of freeze-thaw conditions to disrupt the cells and allow for extraction.
Ten mL of basic acetone (90% acetone:10% of 0.1 N NH4 OH) was then added to each tube, and the tubes were centrifuged to remove protein and cell debris. Five mL of water was added to the supernatant, followed by 0.5 mL of a saturated aqueous solution of NaCl. The pH was then adjusted to 6.8 by the dropwise addition of 2 M KH2 PO4. The aqueous acetone extract was then loaded onto a C8 Baker Prep column. The columns were dried and then washed with 2 mL of water. The tetrapyrroles were eluted with 2×1.5 mL volumes of 90/10 CH3 OH/H2 O. Extracts were then quantified on a spectrofluorometer.
Agent A was supplied as a filter-sterilized 250 mM solution in water, pH 6.5. Agents B, C, D, and E were supplied as 50 mM solutions in acetone. Acetone was also added to the control to provide a concentration of 0.2% v/v therein. The amounts of the agents added to the cell cultures were such as to give the concentrations specified in the Table 1 below. The amounts of the tetrapyrrole protoporphyrin IX ("Proto IX") produced are shown in that Table.

SMILES	concentration of Proto IX in tissue, Adrenal [1]	concentration of Proto IX in tissue, Intestine [1]	concentration of Proto IX in tissue, Kidneys [1]	concentration of Proto IX in tissue, Liver [1]	concentration of Proto IX in tissue, Tumor [1]	Proto IX Mean Cps per gram, Adrenal [1] [Cps per gram × 10^3]	Proto IX Mean Cps per gram, Kidneys [1] [Cps per gram × 10^3]	Proto IX Mean Cps per gram, Liver [1] [Cps per gram × 10^3]	Proto IX Mean Cps per gram, Tumor [1] [Cps per gram × 10^3]	Weight of Tumor as excised [1] [mg]	Proto IX Mean Cps per gram, Intestine ([1]; undiluted samples (6j Day 7)) [Cps per gram × 10^3]	activation at 100 µM [2] [%]	other results
CCCn1c(=O)ccc2cc(F)c(-n3nc(C)n(C(F)F)c3=O)cc21 [Agent 6f]	51 ug of Proto IX per gram of tis	11 ug of Proto IX per gram of tis	6 ug of Proto IX per gram of tis	11 ug of Proto IX per gram of tis	4 ug of Proto IX per gram of tis	5611	661	1170	449	69	1157	280	–
C#CCN1C(=O)C(F)Oc2cc(F)c(-n3nc(C)n(C(F)F)c3=O)cc21 (stereo not shown) [Agent 6g]	18 ug of Proto IX per gram of tis	4 ug of Proto IX per gram of tis	6 ug of Proto IX per gram of tis	7 ug of Proto IX per gram of tis	2 ug of Proto IX per gram of tis	1984	606	803	166	250	466	326	–
COC(=O)c1cc(Oc2ccc(C(F)(F)F)cc2Cl)ccc1[N+](=O)[O-] [Agent 6b]	23 ug of Proto IX per gram of tis	51 ug of Proto IX per gram of tis	22 ug of Proto IX per gram of tis	12 ug of Proto IX per gram of tis	14 ug of Proto IX per gram of tis	2529	2441	1261	1520	90	–	366	Proto IX Mean Cps per gram, Intestine ([1]; samples diluted with 3 parts basic acetone to one part sample): 5577 Cps per gram × 10^3
CCOC(=O)C(C)Oc1ccc(Oc2cc(-n3nc(C)n(C(F)F)c3=O)c(F)cc2Cl)cc1 (stereo not shown) [Agent C]	–	–	–	–	–	–	–	–	–	–	–	–	Amount of Proto IX ([3]; 1 μM agent): 0.19 pmol; Amount of Proto IX ([3]; 10 μM agent): 0.57 pmol; Amount of Proto IX ([3]; 100 μM agent): 4.41 pmol; activity at 1 µM ([3]; Homo sapiens, HeLa, 96 h, 1 μM agent, percent of control, read-out: Relative % proto IX): 86%; activity at 10 µM ([3]; Homo sapiens, HeLa, 96 h, 10 μM agent, percent of control, read-out: Relative % proto IX): 259%; inhibition at 100 µM ([3]; Homo sapiens, HeLa, 96 h, 100 μM agent, 4 days in the dark): 52%; inhibition at 1 µM ([3]; Homo sapiens, HeLa, 1 μM agent, negative values indicate that growth occurred): -26%; inhibition at 10 µM ([3]; Homo sapiens, HeLa, 10 μM agent, negative values indicate that growth occurred): -15%; Amount of Proto IX [4]: 3.5 pmol; Fluorescence Emission cps 400/630 [4]: 33477 cps

From patent publication US5298502A, “Method and composition for photodynamic treatment and detection of tumors” (priority 1991, dated 1994)
